According to patent US8933099B2, “Monocyclic pyridine derivative” (Eisai R&D Management Co., Ltd., priority 2013, dated 2015):

Tests used:
Type in all cases: in vivo
Conditions in all cases: oral, once a day for 14 days, tumor volume last day
[1] = tested on: human endometrial cancer cell line AN3CA xenograft; assay: Antitumor effect in AN3CA subcutaneous xenograft model in mice
Text: (§1) Human endometrial cancer cell line AN3CA (ATCC Number HTB-111), which had been cultured in an RPM-1640 medium containing 10% FBS, and penicillin and streptomycin, were adjusted to a concentration of 1×10^8 cells/mL with Hanks' Balanced Salt Solution (GIBCO #24020) to prepare a cell suspension, and the suspension was mixed with […] (BD Biosciences, Cat#354234) in a ratio of 1:1 to prepare a cell suspension in a concentration of 5×10^7 cells/ml. The cell suspension was inoculated in a volume of 100 into a subcutaneous part of a right flank of nude mice, 7 weeks of age (BALB/cAJcl-nu/nu, female, Clea Japan Inc.). Eleven days after cell inoculation, the shortest diameter and the longest diameter of a tumor in each mouse were measured by using an electronic digital caliper (Digimatic™ caliper, Mitutoyo Corporation), so as to calculate the volume of the tumor in accordance with the following calculation formula: Tumor volume(mm^3)=Longest diameter(mm)×Shortest diameter(mm)×Shortest diameter(mm)/2
(§2) On the basis of the volumes of tumors obtained on the first day of administration, the nude mice were grouped such that averages of the tumor volumes were substantially equal among the groups. Each test substance was dissolved in DMSO, Tween 80 was added thereto to prepare a solution in a 10-fold concentration and the thus prepared solution was stored at the freezer before use. Immediately before the administration, the stock solution was diluted with a 5% glucose solution to obtain a final administration solution (in which a ratio in % among DMSO, Tween 80 and the 5% glucose solution was 3.5:6.5:90). Each evaluation sample was orally administered to test substance administration group at a volume of 0.4 mL per 20 g of body weight once a day continuously for 14 days, and in a control group, an administration solvent was orally administered under the same conditions. Incidentally, the experiment was conducted on groups each consisting of 5 mice.
(§3) With respect to each of the control group and test substance administration group, a ratio of the weight measured on the final day to the weight measured on the first day (relative body weight: RBW) was calculated. If a ratio of the RBW of the test substance administration group/the RBW of the control group is 0.9 or more, the corresponding test substance administration group was defined as a well-tolerated. In the test substance administration group thus defined as well-tolerated, a ratio of the tumor volume of the test substance-dosing group to the tumor volume of the control group obtained on the last day (T/C) (%) was calculated, and shown in Table 26.

[2] = tested on: human endometrial cancer cell line MFE280 xenograft; assay: Antitumor effect in MFE280 subcutaneous xenograft model in mice
Text: Human endometrial cancer cell line MFE280 (DSMZ Number ACC-410), which had been cultured in an RPMI-1640 medium containing 10% FBS, and penicillin and streptomycin, were adjusted to a concentration of 4.7×10^7 cells/mL with Hanks' Balanced Salt Solution (GIBCO 1124020) to prepare a cell suspension, and the suspension was mixed with […] (BD Biosciences, Cat#354234) in a ratio of 1:1 to prepare a cell suspension in a concentration of 2.4×10^7 cells/ml. The cell suspension was inoculated in a volume of 100 μL into a subcutaneous part of a right flank of nude mice, 7 weeks of age (BALB/cAJcl-nu/nu, female, Clea Japan Inc.). Thirty five days after cell inoculation, the shortest diameter and the longest diameter of a tumor in each mouse were measured by using an electronic digital caliper (Digimatic™ caliper, Mitutoyo Corporation), so as to calculate the volume of the tumor in accordance with the following calculation formula: Tumor volume(mm^3)=Longest diameter(mm)×Shortest diameter(mm)×Shortest diameter(mm)/2
as §2, with “fast” for “first”
as §3, with “(TIC)” for “(T/C)”, “28.” for “26.”

[3] = tested on: human endometrial cancer cell line MFE296 xenograft; assay: Antitumor effect in MFE296 subcutaneous xenograft model in mice
Text: as §1, with “MFE296 (DSMZ” for “AN3CA (ATCC”, “ACC-419),” for “HTB-111),”, “RPMI-1640” for “RPM-1640”, “The” for “The cell”, “100 μL” for “100”, “Twelve” for “Eleven”
as §2
as §3, with “(TIC)” for “(T/C)”, “27.” for “26.”

CNC(=O)n1ccc2cc(Oc3ccnc(NC(=O)c4ccc(C5CCN(CCO)CC5)cc4)c3)c(OCCOC)cc21 [Example 22, 5-((2-(4-(1-(2-Hydroxyethyl)piperidin-4-yl)benzamide)pyridin-4-yl)oxy)-6-(2-methoxyethoxy)-N-methyl-1H-indole-1-carboxamide]
T/C (%) ([1]; 6.25 mg/kg): 29% | T/C (%) ([1]; 12.5 mg/kg): 11% | T/C (%) ([1]; 25 mg/kg): 4% | T/C (%) ([1]; 50 mg/kg): 2% | T/C (%) ([2]; 6.25 mg/kg): 72% | T/C (%) ([2]; 12.5 mg/kg): 57% | T/C (%) ([2]; 25 mg/kg): 31% | T/C (%) ([2]; 50 mg/kg): 11% | T/C (%) ([3]; 6.25 mg/kg): 91% | T/C (%) ([3]; 12.5 mg/kg): 85% | T/C (%) ([3]; 25 mg/kg): 60% | T/C (%) ([3]; 50 mg/kg): 54%
